Laboratory results published in ChEMBL document CHEMBL5465560, “Selectivity Literature for EUbOPEN Chemogenomic Library” (2024).

Assays:
[1] = biological target: Sigma non-opioid intracellular receptor 1 (Homo sapiens) (UniProt Q99720); assay: Selectivity interaction (GPCR panel (PDSP screen)) EUB0001079a SIGMAR1; details: at 10 µM
[2] = tested on: T1, Receptor-type tyrosine-protein kinase FLT3 (Homo sapiens), P36888 [D835V]; assay: Selectivity interaction (KinomeScan (DiscoverX)) EUB0000311b FLT3; details: at 1 µM
T1 sequence (whole entry): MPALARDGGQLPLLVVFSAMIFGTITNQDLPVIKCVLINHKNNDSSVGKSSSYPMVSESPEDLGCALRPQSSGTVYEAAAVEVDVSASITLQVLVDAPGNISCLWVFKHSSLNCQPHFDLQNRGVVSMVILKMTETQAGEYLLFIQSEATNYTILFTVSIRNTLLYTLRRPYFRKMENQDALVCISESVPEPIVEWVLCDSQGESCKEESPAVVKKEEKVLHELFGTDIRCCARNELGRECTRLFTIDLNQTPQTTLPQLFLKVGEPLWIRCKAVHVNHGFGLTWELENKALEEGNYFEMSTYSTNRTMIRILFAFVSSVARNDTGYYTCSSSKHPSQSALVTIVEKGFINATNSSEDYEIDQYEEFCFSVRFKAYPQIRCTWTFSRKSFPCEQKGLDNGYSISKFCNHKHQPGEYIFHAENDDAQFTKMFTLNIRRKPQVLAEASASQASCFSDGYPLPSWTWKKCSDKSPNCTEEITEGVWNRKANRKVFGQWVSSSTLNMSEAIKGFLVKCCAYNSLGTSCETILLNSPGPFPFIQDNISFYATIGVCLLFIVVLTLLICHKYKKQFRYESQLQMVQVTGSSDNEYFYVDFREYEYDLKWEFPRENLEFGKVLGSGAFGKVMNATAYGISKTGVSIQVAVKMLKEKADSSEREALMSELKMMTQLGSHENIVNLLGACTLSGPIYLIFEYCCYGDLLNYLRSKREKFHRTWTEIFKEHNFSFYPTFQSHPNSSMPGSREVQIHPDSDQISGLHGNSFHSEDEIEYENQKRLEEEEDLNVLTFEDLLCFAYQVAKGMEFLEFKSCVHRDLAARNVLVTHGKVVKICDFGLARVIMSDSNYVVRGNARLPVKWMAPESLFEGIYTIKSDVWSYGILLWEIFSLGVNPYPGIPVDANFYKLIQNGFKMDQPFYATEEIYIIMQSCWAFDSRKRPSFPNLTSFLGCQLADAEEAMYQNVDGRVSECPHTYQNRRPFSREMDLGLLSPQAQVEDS

[3] = biological target: Calcium/calmodulin-dependent protein kinase type 1D (Homo sapiens) (UniProt Q8IU85); assay: Selectivity interaction (ActivX KiNativ screen (kinase selectivity in THP-1 cell lysates)) EUB0000639a CAMK1D; type: subcellular; details: lysate, at 1 µM
[4] = biological target: T2, Serine/threonine-protein kinase DCLK2 (Homo sapiens) (UniProt Q8N568); assay: Selectivity interaction (SelectScreen profiling (Invitrogen)) EUB0000607a DCLK2; details: at 2 µM
T2 sequence (whole entry): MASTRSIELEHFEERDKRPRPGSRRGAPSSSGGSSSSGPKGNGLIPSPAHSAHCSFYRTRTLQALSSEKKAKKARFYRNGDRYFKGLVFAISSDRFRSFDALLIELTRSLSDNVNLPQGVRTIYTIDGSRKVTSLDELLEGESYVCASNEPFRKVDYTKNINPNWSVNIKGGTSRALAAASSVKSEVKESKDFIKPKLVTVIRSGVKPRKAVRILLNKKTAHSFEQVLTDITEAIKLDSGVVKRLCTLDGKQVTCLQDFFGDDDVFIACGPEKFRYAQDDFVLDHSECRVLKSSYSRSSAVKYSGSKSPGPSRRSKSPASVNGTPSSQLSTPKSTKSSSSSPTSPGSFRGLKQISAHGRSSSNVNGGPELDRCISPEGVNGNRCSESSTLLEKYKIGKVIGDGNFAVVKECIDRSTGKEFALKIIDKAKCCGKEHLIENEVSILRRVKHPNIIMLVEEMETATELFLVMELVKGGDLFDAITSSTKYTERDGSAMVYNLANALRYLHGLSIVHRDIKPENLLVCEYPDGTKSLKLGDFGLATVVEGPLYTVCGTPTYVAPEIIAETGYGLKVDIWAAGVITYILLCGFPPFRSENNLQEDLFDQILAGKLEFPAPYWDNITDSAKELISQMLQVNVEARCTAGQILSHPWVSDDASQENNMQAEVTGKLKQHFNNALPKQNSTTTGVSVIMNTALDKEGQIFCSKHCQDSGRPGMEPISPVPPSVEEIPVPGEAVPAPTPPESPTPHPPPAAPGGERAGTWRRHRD

[5] = biological target: Serine/threonine-protein kinase pim-2 (Homo sapiens, UniProt Q9P1W9); assay: Selectivity interaction (KinomeScan (DiscoverX)) EUB0000045b PIM2
[6] = biological target: T3, Cyclin-dependent kinase-like 5 (Homo sapiens) (UniProt O76039); assay: Selectivity interaction (KinomeScan (DiscoverX)) EUB0000045b CDKL5
T3 sequence (whole entry): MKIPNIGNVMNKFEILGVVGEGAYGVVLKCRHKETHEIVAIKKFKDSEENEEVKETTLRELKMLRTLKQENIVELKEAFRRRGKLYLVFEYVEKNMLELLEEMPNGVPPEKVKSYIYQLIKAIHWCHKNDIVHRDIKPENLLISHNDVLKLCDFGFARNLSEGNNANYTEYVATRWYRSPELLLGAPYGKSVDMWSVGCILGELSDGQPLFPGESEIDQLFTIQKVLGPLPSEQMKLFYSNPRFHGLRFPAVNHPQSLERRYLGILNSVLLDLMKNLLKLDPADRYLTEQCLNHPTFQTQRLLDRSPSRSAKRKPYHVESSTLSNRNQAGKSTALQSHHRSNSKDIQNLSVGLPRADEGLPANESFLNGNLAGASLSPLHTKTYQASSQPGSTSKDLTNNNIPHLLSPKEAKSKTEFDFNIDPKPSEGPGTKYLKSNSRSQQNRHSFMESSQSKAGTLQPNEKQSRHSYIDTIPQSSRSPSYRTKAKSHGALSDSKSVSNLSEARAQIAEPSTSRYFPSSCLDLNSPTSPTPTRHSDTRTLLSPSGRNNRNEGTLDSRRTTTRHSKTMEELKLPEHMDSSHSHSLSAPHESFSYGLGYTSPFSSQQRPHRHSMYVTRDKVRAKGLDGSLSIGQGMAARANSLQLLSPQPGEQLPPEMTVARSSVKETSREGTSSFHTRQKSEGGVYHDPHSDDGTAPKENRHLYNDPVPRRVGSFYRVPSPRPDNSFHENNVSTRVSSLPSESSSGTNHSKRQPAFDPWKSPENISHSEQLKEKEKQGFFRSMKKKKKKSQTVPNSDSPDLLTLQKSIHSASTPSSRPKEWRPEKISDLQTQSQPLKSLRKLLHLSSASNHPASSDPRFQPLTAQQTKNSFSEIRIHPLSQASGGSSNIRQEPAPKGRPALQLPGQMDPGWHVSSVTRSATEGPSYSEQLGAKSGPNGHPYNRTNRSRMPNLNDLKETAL

Serine/threonine-protein kinase pim-2, sequence (Q9P1W9 whole entry, looked up): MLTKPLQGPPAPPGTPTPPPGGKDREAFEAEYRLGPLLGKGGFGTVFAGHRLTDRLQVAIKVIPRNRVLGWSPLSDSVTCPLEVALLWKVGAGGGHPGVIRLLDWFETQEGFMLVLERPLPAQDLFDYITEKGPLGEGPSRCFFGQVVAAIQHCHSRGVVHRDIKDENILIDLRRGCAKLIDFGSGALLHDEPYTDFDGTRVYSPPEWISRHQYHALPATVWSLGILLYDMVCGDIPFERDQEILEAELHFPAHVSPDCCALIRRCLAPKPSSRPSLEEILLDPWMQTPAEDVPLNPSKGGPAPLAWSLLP
Calcium/calmodulin-dependent protein kinase type 1D (Homo sapiens), sequence (Q8IU85 whole entry, looked up): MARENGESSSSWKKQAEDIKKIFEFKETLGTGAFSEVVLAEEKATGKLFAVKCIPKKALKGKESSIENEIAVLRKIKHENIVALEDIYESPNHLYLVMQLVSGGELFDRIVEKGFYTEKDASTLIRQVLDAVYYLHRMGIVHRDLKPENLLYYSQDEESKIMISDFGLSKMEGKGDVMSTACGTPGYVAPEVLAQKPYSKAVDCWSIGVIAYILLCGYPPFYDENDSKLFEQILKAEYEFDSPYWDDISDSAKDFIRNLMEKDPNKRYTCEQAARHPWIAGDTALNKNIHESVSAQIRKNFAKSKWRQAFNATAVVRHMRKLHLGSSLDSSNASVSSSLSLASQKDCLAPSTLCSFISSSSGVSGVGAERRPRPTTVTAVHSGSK
Sigma non-opioid intracellular receptor 1 (Homo sapiens), sequence (Q99720 whole entry): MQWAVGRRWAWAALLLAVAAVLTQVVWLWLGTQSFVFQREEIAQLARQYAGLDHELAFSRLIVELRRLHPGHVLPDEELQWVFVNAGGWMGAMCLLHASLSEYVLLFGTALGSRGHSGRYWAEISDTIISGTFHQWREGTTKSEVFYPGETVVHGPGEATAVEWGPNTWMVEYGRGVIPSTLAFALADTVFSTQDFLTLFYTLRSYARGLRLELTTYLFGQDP

## Nc1cnc(N2CCc3cc(S(=O)(=O)Nc4c(F)cc(Cl)cc4F)cc(N4CCCC4=O)c32)nc1 [TP-020n]
[1]
  % of inhibition: -14.4%

## CCc1ccccc1C(=O)Nc1n[nH]c2c(C)c(F)c(C3C(C#N)=C(C)N(C)C(C)=C3C#N)cc12 [BAY-3827]
[2]
  % of control: 3.2%

## CC[C@@H]1[C@H](F)C(=O)N[C@@H]1COc1nccc2cc(C(N)=O)c(OC)cc12 [ZIMLOVISERTIB]
[3]
  % of inhibition: -1.2%

## CNC(=O)Nc1ccc(-c2nc(N3CC4CCC(C3)O4)c3cnn(C4CCC5(CC4)OCCO5)c3n2)cc1
[4]
  % of inhibition: 2%

## C=CC(=O)Nc1cc(-n2c(=O)ccc3cnc4ccc(-c5ccc(NS(C)(=O)=O)cc5)cc4c32)ccc1C
[5]; at 1 µM
  % of control: 66%
[5]; at 10 µM
  % of control: 100%
[6]; at 1 µM
  % of control: 100%
[6]; at 10 µM
  % of control: 81%
